Results from patent US9150581B2, “Nicotinic receptor compounds” (priority 2011, dated 2015).
Values joined by “and” are separate entries in the source; they are usually repeats but may differ in a detail not shown here. Equal values may be shown once. Where a name gives a salt, the structure may show the parent alone. Read-outs that look alike come from different tables or passages of the source.

Legend:
Male Sprague-Dawley rats [1] = conditions: for Blockade of nicotine's hypertensive effects: given prior to 1.78 mg/kg nicotine, RTI-154 10 mg/kg, DHβE 5.6 mg/kg
Experimental: Male Sprague-Dawley rats (approximately 300 g) were obtained from Harlan, Inc. (Indianapolis, Ind.) and group-housed upon arrival. Food and water were freely available for all rats at all times. Housing and experimental rooms were maintained on a 12 h light/dark cycle with lights on at 7:00 AM with an average temperature of 21° C.
Surgical Procedures. To measure changes in heart rate and mean arterial pressure, rats were implanted with telemetric transmitters (TA11PAC40 or TL11M2-C50-PXT, Data Sciences International, Transoma Medical Inc., St. Paul, Minn., USA) under ketamine (90 mg/kg, i.p.) and xylazine (10 mg/kg, i.p.) anesthesia. An incision is made in the skin approximately 1 in to the left or right of the spine and over the left or right thigh to expose the femoral artery. The transmitter is placed into the incision on the dorsal side and into a subcutaneous pocket (made by separating the connective tissue between the skin and muscle) on the side of the abdomen. This positioning prevents the rats from manipulating the incision site and gaining access to the transmitter. The catheter extending from the base of the transmitter is threaded subcutaneously, placed 3 cm into the femoral artery, and secured with suture. Incisions were closed with 5.0 Ethicon nylon monofilament suture. Following surgery, rats were singly-housed and monitored for at least 7 days for signs of recovery (normal eating, drinking, and defecating patterns) prior to experimentation. All rats continued to have free access to food and water at all times.
Telemetry System. The system consists of battery-operated transmitters surgically implanted (described above), Physiotel® receivers, the DSI Data Exchange Matrix, and the Dataquest A.R.T. system, which collects and stores digital data from the receiver onto a computer (Data Sciences International, Transoma Medical Inc., St. Paul, Minn., USA). Blood pressure and heart rate data were analyzed by the Dataquest A.R.T. Gold Analysis 3.01 software.
At the start of an experiment, rats' home cages were placed on top of the receivers, and baseline data was collected for at least 1 h to allow heart rate and blood pressure to return to resting levels. All rats were given a saline injection to ensure that they are habituated to the injection and handling procedure on the test day. After heart rate and blood pressure returned to resting levels again, rats were injected with a treatment, consisting either of a single drug dose or a pretreatment drug administered 15 min prior to a test drug. Data was collected for at least 2 h following the last injection. All injections were administered subcutaneously (s.c.) in a volume of 1 ml/kg.
Each rat was used to evaluate multiple experimental conditions, such that each rat may receive as many as 4-6 different treatments, one per week with at least 6 days between drug exposures. […] Once the rats weigh approximately 450 g (body weight at time of transmitter implant: 300-350 g), the rat is no longer used for experiments, and the transmitter is removed.
Data were collected throughout baseline, before, and after drug treatments. The analysis program calculated an average heart rate and mean arterial pressure (MAP) every 10 sec. These 10 secepochs are then averaged over 1 min per rat, and data from at least 6 rats were averaged for each treatment group.

Male Sprague-Dawley rats [2] = format: in vivo, rat; conditions: for Nicotine-like discriminative stimulus effects: compound alone (FIG. 3); for Shift of discriminative stimulus dose-effect curve of small dose of nicotine: small training dose of nicotine
Experimental: A drug discrimination assay was performed to measure the relevant effects of nicotine as it influences tobacco use and abuse. In a drug discrimination assay, food restricted rates are trained to make one response (select one of two nose-poke apertures in the test chamber) following administration of a particular drug, and a different response (select the other aperture) following administration of saline. The appropriate response is followed by delivery of food, and there is no cue as to which aperture will result in food delivery other than the presence or absence of the drug. Once trained, the animals respond on the “drug-associated” aperture following drug administration and on the “saline-associated” aperture following saline administration. In addition, administration of drug doses that are smaller than the training dose produce intermediate responses on the drug-associated aperture such that monotonically increasing dose-response curves can be generated in drug discrimination assays.
Male Sprague-Dawley rats were obtained from Harlan, Inc (Indianapolis, Ind.) and singly housed in polycarbonate cages with water continuously available. All rats weighed approximately 280-290 gms at the start of the experiment. A food-restricted diet of Purina rodent food allowed the animals to grow but maintain motivation to respond to earn food pellets. A 12 hr light-dark cycle turned the lights on at 7:00 am. Standard operant conditioning chambers (ENV-008, Med-Associates, St Albans, Vt.) were used for establishing and evaluating the nicotine discrimination. Each chamber contains two nose-poke devices with apertures containing yellow LED lights on either side of a dipper capable of delivering 50 μl of fluid into a third opening.
Initially, each rat was trained to insert its nose into one of the apertures and received vanilla-flavored Ensure as a consequence. During discrimination training, rats designated in the small dose group were injected with either saline or 0.32 mg/kg of nicotine. Ten consecutive responses on the appropriate lever (one side following saline administration; the other side following nicotine administration) was followed by presentation of the Ensure for 10 s, followed by a 10 s timeout. Selection of the incorrect lever, and completion of the 10 consecutive responses in this lever results in a 10 s timeout. Criteria for learning the discrimination are 1) responding on the first FR of the session is completed on the injection appropriate aperture; 2) >85% of the total session responses are made on the injection-appropriate aperture.
Each session was divided into several components of 25 min duration. Following an injection, the first five minutes of each component were black out, and the stimulus lights were illuminated for the remaining 20 min, during which injection-appropriate responses were reinforced.
One to four components comprised daily sessions Animals were injected with saline or nicotine prior to the start of the session, or following one or more of the […] components. Possible injection conditions were (S=saline, N=nicotine) S—S—S—S; N; S—N; S—S—N; S—S—S—N. Nicotine administration is always given in the final component if it is given at all.
If a potential antagonist was given, it was administered prior to the session at a time determined by earlier studies to be sufficient for peak effects to be established. The session components then comprised increasing doses of nicotine, each given before consecutive blackout periods. No more than two antagonist sessions were given each week, and once each month a nicotine dose-response curve was determined to assure no changes in sensitivity to nicotine. Full generalization to the nicotine discriminative cue is defined by >85% responding on the drug-associated aperture and completing at least one FR.
A second, large-nicotine trained group of rats were treated in an identical manner except that their training dose of nicotine is 1.78 mg/kg. […]

α4β2 nAChR = α4β2 nAChR (Rattus norvegicus (Rat), UniProt P09483+P12390); assay: Inhibition of [3H]epibatidine binding at the α4β2 nAChR in male rat cerebral cortex; conditions: αβ [3H]Epibatidine (Ki, nM)
mice [3] = assay: Tail-flick test (antinociception); format: in vivo, mouse; conditions: @ 10 mg/kg, sc
Experimental: (§1) In the tail-flick method of D'Amour and Smith, (D'Amour, F. E.; Smith, D. L. J. Pharmacol. Exp. Ther. 1941, 72, 74-79), the tail is exposed to a heat lamp and the amount of time taken for the animal to move (flick) its tail away from the heat is recorded. […] Mice were placed into a 10-cm wide glass cylinder on a hot plate (Thermojust Apparatus) maintained at 55.0° C. Two control latencies at least 10 min apart were determined for each mouse. […] The reaction time was scored when the animal jumped or licked its paws. The mice were tested 5 min after subcutaneous (sc) injections of nicotinic ligands for the dose-response determination. Antinociceptive response was calculated as percentage of maximum possible effect (% MPE, where % MPE=[(test−control)/(maximum latency−control)×100]).

mice [4] = assay: Hot-plate test (antinociception); format: in vivo, mouse; conditions: @ 10 mg/kg, sc
Experimental: as §1

mice [5] = assay: Hypothermia (rectal temperature); format: in vivo, mouse; conditions: sc; for Hypothermia, % effect at dose: @ 10 mg/kg
Experimental: (§2) Interruptions of the photocell beams (two banks of eight cells each) were then recorded for the next 10 min. Data were expressed as number of photocell interruptions. Rectal temperature was measured by a thermistor probe (inserted 24 mm) and digital thermometer (Yellow Springs Instrument Co., Yellow Springs, Ohio). […] The difference in rectal temperature before and after treatment was calculated for each mouse. The ambient temperature of the laboratory varied from 21 to 24° C. from day to day.

mice [6] = assay: Spontaneous activity (photocell activity cages); format: in vivo, mouse; conditions: sc
Experimental: as §2

mice [7] = assay: Antagonism of nicotine antinociception, tail-flick; format: in vivo, mouse; conditions: mice pretreated sc 10 min before nicotine 2.5 mg/kg sc
Experimental: as §1
(§3) Nicotine was administered at a dose of 2.5 mg/kg, sc (an ED84 dose), and mice were tested 5 min later. ED50 and AD50 values with 95% confidence limits were determined.

mice [8] = assay: Antagonism of nicotine antinociception, hot-plate; format: in vivo, mouse; conditions: for AD50 Hot-Plate: mice pretreated sc 10 min before nicotine 2.5 mg/kg sc; for Antagonism Hot-Plate, % at dose: before nicotine 2.5 mg/kg sc
Experimental: as §1, §3

Male ICR adult mice = format: in vivo, mouse
α7 nAChR = α7 nAChR (Rattus norvegicus (Rat), UniProt Q05941); format: binding; conditions: read-out: α7 [125I]iodoMLA (Ki)
[9] = listed as (±)-154, hydrochloride

α4β2 nAChR, sequence (P09483 31-630 limits assumed): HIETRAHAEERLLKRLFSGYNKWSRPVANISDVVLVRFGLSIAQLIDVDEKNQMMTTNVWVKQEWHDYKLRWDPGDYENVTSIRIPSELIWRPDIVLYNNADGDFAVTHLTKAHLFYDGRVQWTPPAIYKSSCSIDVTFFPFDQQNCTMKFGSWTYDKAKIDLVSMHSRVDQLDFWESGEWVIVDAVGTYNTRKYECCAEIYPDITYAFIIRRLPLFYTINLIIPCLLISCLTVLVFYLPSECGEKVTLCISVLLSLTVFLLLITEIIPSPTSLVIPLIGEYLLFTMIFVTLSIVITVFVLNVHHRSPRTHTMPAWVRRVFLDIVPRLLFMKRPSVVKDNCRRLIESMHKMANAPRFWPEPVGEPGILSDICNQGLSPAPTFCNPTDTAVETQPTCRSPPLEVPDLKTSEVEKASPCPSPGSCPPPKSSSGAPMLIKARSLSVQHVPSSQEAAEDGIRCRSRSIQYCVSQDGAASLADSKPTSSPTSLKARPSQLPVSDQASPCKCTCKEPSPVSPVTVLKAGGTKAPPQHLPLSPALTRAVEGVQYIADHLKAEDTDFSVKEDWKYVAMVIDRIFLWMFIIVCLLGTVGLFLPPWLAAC
α4β2 nAChR, sequence (P12390 25-500 limits assumed): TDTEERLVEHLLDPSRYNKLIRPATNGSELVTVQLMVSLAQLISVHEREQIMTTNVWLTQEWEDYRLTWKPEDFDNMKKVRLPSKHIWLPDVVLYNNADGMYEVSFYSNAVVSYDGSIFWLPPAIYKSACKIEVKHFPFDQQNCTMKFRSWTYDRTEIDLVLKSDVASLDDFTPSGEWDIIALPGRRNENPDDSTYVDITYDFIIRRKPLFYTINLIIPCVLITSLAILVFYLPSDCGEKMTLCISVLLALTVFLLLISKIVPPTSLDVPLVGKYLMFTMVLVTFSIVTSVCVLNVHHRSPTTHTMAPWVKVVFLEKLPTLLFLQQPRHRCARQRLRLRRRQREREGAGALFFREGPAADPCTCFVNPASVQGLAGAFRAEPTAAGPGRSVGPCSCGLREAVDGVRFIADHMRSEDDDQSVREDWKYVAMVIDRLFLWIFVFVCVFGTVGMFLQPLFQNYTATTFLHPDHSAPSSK
α7 nAChR, sequence (Q05941 23-502 limits assumed): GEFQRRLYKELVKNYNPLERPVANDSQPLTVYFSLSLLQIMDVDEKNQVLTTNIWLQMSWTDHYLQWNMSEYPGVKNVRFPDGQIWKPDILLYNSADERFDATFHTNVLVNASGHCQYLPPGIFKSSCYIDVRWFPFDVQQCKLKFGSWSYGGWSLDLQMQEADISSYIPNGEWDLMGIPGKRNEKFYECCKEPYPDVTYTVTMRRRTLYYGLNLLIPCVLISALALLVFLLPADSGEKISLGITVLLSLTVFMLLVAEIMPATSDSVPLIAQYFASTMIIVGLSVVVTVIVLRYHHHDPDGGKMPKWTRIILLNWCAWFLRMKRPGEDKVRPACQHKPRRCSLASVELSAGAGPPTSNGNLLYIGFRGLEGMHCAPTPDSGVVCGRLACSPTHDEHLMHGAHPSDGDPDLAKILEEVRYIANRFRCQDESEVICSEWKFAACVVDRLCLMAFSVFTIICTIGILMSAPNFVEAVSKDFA

Clc1ccc(C2CC3CCC2N3)cn1 (single isomer, unassigned; (-)) [(−)-epibatidine, epibatidine]
Effect on blood pressure (Male Sprague-Dawley rats [1]; rats, s.c., compound alone): substantial increases in blood pressure
Nicotine-like discriminative stimulus effects (Male Sprague-Dawley rats [2]): extremely potent full nicotine-like agonist

CO[C@H]1CC=C2CCN3CCC4=C(CC(=O)OC4)[C@]23C1 [DHβE, dihydro-beta-erythroidine]
Blockade of nicotine's hypertensive effects (Male Sprague-Dawley rats [1]; rats): did not block
Cardiovascular effects (heart rate and mean arterial pressure) (Male Sprague-Dawley rats [1]; rats, s.c., compound alone): no cardiovascular effects
Effect on blood pressure (Male Sprague-Dawley rats [1]; rats, s.c., compound alone): no changes in blood pressure
Effect on rate-decreasing effects of nicotine (Male Sprague-Dawley rats [2]): did not antagonize
Shift of discriminative stimulus dose-effect curve of small dose of nicotine (Male Sprague-Dawley rats [2]): parallel rightward shifts
Shift of large dose-nicotine dose-response curve (Male Sprague-Dawley rats [2]; training dose of nicotine 1.78 mg/kg): much less robust rightward shifts

CNC1(C)C2CCC(C2)C1(C)C (centres unmarked) [Mecamylamine, mecamylamine]
Effect on rate-decreasing effects of nicotine (Male Sprague-Dawley rats [2]): parallel rightward shift
Shift of discriminative stimulus dose-effect curve of small dose of nicotine (Male Sprague-Dawley rats [2]): rightward and downward shift

Fc1ncc(C2CC3CCC2N3)cc1-c1ccc(C(F)(F)F)cc1 (centres unmarked) [RTI-7527-153, 2-(5-(4-Trifluoromethane-phenyl)-6-fluoro-pyridin-3-yl)-7-aza-bicyclo[2.2.1]heptane hydrochloride]
Ki (α4β2 nAChR): 0.44 ± 0.05 nM
Tail-Flick, % effect at dose (mice [3]): 4% @ 10
Hot-Plate, % effect at dose (mice [4]): 6% @ 10
Hypothermia, % effect at dose (mice [5]): 0% @ 10
Spontaneous Activity, % effect at dose (mice [6]; @ 10 mg/kg): 5% @ 10
AD50 Tail-Flick (mice [7]): 0.038 mg/kg
AD50 Hot-Plate (mice [8]): 6 mg/kg

CS(=O)(=O)c1ccc(-c2cc(C3CC4CCC3N4)cnc2F)cc1 (centres unmarked) [RTI-7527-154, 2-(5-(4-Methanesulphonyl-phenyl)-6-fluoro-pyridin-3-yl)-7-aza-bicyclo[2.2.1]heptane hydrochloride]
Ki (α4β2 nAChR): 0.17 nM and 0.08 nM
Tail-Flick, % effect at dose (mice [3]; [9]): 6% @ 10 and 5% @ 10
Hypothermia, % effect at dose (mice [5]; [9]): 1% @ 10 and 1.2% @ 10
Spontaneous Activity, % effect at dose (mice [6]; @ 5 mg/kg): 0% @ 5;
Antagonism Hot-Plate, % at dose (mice [8]; @ 5000 μg/kg): 40% @
AD50 Hot-Plate (mice [8]): 2.6 mg/kg
Blockade of development of nicotine-induced CPP (Male ICR adult mice; mouse, in vivo): totally blocked
Preference or aversion induced by compound itself in CPP (Male ICR adult mice; mouse, in vivo): did not induce significant preference or aversion
Blockade of nicotine's hypertensive effects (Male Sprague-Dawley rats [1]; rats): did not block
Cardiovascular effects (heart rate and mean arterial pressure) (Male Sprague-Dawley rats [1]; rats, s.c., compound alone): no cardiovascular effects
Effect on rate-decreasing effects of nicotine (Male Sprague-Dawley rats [2]): did not, however, alter the potency of nicotine
Effect on rates of responding (Male Sprague-Dawley rats [2]; compound alone): did not suppress ongoing rates of responding
Nicotine-like discriminative stimulus effects (Male Sprague-Dawley rats [2]): no efficacy

N#Cc1ccc(-c2cc(C3CC4CCC3N4)cnc2F)cc1 (centres unmarked) [RTI-7527-155, 2-(5-(4-Cyano-phenyl)-6-fluoro-pyridin-3-yl)-7-aza-bicyclo[2.2.1]heptane hydrochloride]
Ki (α4β2 nAChR): 0.19 ± 0.012 nM
Tail-Flick, % effect at dose (mice [3]): 4% @ 10
Hot-Plate, % effect at dose (mice [4]): 18% @ 10
Hypothermia, % effect at dose (mice [5]): 0% @ 10
Spontaneous Activity, % effect at dose (mice [6]; @ 10 mg/kg): 0% @ 10
AD50 Tail-Flick (mice [7]): 0.006 mg/kg
Antagonism Hot-Plate, % at dose (mice [8]; @ 10000 μg/kg): 24% @

CN1CCCC1c1cccnc1 (centres unmarked) [nicotine]
Effect on blood pressure (Male Sprague-Dawley rats [1]; rat, in vivo, sc): substantial increases in blood pressure

c1cnc2cc3c(cc2n1)[C@@H]1CNC[C@H]3C1 [varenicline, reference compound]
Ki (α7 nAChR): 32.5 nM
Tail-Flick, % effect at dose (mice [3]): 11% @ 10
Hot-Plate, % effect at dose (mice [4]): 10% @ 10
ED50 (mice [5]; Mus musculus): 2.8 mg/kg
ED50 (mice [6]; Mus musculus): 2.1 mg/kg
AD50 Tail-Flick (mice [7]): 0.0002 mg/kg
AD50 Hot-Plate (mice [8]): 0.47 mg/kg
Preference or aversion induced by compound itself in CPP (Male ICR adult mice; compound alone at the doses used): without a significant effect on its own
Blockade of nicotine CPP (Male ICR adult mice; mouse, s.c. 10 min prior to nicotine 0.5 mg/kg, several doses): dose-dependently blocked nicotine CPP
Effect on blood pressure (Male Sprague-Dawley rats [1]; rats, s.c., compound alone): substantial increases in blood pressure
Nicotine-like discriminative stimulus effects (Male Sprague-Dawley rats [2]): nearly full nicotine-like discriminative stimulus effects

α-conotoxin AUIB
Blockade of development of nicotine reward in the CPP test (Male ICR adult mice; mouse, in vivo): blocked the development of nicotine reward
